Laboratory results: article PMC6476888, “Design and synthesis of anticancer 1-hydroxynaphthalene-2-carboxanilides with a p53 independent mechanism of action” (Scientific Reports, 2019)

What was measured:
[1] = system: HCT116^−/−; assay: Antiproliferative assay (MTS, 72 h) on HCT116 with p53 deletion; type: cell-based, human; conditions: for IC50: Homo sapiens, HCT-116, MTS, 72 h incubation
Procedure: (§1) All of the synthesized compounds were tested for their antiproliferative activity against human colon cancer (Table 1). We used both the wild-type and p53-negative cell lines (HCT116^+/+ and HCT116^−/−, respectively). Mutations in the TP53 gene are present in more than 50% of all cancers and often specifically correspond to a difficult therapy, resistance or a bad prognosis[60]–[63]. The active compounds were additionally tested for their cytotoxicity against normal human fibroblasts. We used 5-fluorouracil (5-FLU), doxorubicin (DOX) and CP-31398 as the standards. 5-FLU is one of the first antimetabolites that was dedicated for cancer treatment and is still used for a wide range of cancers including colon carcinoma. Doxorubicin is a DNA topoisomerase II poison with a high intercalating potency, which is able to induce apoptosis through the p53 pathway. Although DOX has been described as being ineffective in some p53 mutants, its level of activity against the p53 null lines is similar. CP-31398, on the other hand, is an experimental drug in the clinical phase and its mechanism of action is through the reactivation some of p53 mutants. Its activity against the p53 null cell lines is greatly diminished and is actually lower than its cytotoxicity.
(§2) The human colon cancer cell line HCT116 wild type was obtained from ATCC and the normal human fibroblast cell lines NHDF were obtained from PromoCell. The human colon cancer cell line HCT116 with a p53 deletion (p53^−/−) was kindly provided by Prof. M. Rusin from the Maria Sklodowska-Curie Memorial Cancer Centre and Institute of Oncology in Gliwice, Poland[89]. The cells were grown as monolayer cultures in Dulbecco’s modified Eagle’s medium with the antibiotic gentamicin (200 μL/100 mL medium) in 75 cm^2 flasks (Nunc). The DMEM for the HCT116 were supplemented with 12% heat-inactivated fetal bovine serum (Sigma-Aldrich, St. Louis, MO, USA) and for NHDF with 15% non-inactivated fetal bovine serum (Sigma Aldrich, St. Louis, MO, USA). The cells were cultured under standard conditions at 37 °C in a humidified atmosphere at 5% CO2.
(§3) The cells were seeded in 96-well plates (Nunc) at a density of 5,000 cells/well (HCT116) and 4,000 cells/well (NHDF) and incubated at 37 °C for 24 h. The assay was performed following a 72 h incubation with varying concentrations of the compounds that were being tested. Then, 20 µL of CellTiter 96® AQueous One Solution-MTS (Promega) was added to each well (with 100 µL DMEM without phenol red) and incubated for 1 h at 37 °C. The optical densities of the samples were analyzed at 490 nm using a Synergy 4 multi-plate reader (BioTek, Winooski, VT, USA). The results are expressed as the percentage of the control and were calculated as the inhibitory concentration (IC50) values (using a GraphPad Prism 7). The IC50 parameter was defined as the compound concentration that was necessary to reduce the proliferation of cells to 50% of the untreated control. Each individual compound was tested in triplicate in a single experiment with each experiment being repeated three or four times.

[2] = system: HCT116^+/+; assay: Antiproliferative assay (MTS, 72 h) on HCT116 wild type; type: cell-based, human; conditions: Homo sapiens, HCT-116; MTS, 72 h incubation; read-out: Activity IC50 HCT116^+/+
Procedure: as §1, §2, §3

[3] = system: NHDF; assay: Cytotoxicity (MTS, 72 h) against normal human fibroblasts; type: cell-based; conditions: Homo sapiens, NHDF; MTS, 72 h incubation
Procedure: as §1, §2, §3

| SMILES | IC50 [1] [µM] | melting point [°C] | IC50 [2] [µM] | IC50 [3] [µM] | selectivity towards the p53 null cells (HCT116 p53^−/− vs wild type) [1] |
| --- | --- | --- | --- | --- | --- |
| O=C(Nc1cc(F)c(F)cc1F)c1ccc2ccccc2c1O [4j] | 4.75 ± 0.05 | 201 to 204 | 1.87 ± 0.35 | 24.52 ± 0.03 | – |
| COc1cccc(C)c1NC(=O)c1ccc2ccccc2c1O [2k] | > 25 | 177 to 179 | > 25 | – | – |
| O=C(Nc1ccc(Br)cc1F)c1ccc2ccccc2c1O [4r] | 3.43 ± 0.69 | 172 to 174 | 15 ± 4.82 | > 25 | roughly 4.5 fold |
| COc1ccc(C)cc1NC(=O)c1ccc2ccccc2c1O [2j] | > 25 | 106 to 108 | > 25 | – | – |
| O=C(Nc1c(F)cccc1F)c1ccc2ccccc2c1O [4f] | > 25 | 197 to 200 | > 25 | – | – |
| O=C(Nc1c(Br)cc(F)c(Cl)c1Br)c1ccc2ccccc2c1O [6m] | > 25 | 244 to 247 | > 25 | – | – |
| O=C(Nc1cc(F)cc(F)c1)c1ccc2ccccc2c1O [4h] | 2.24 ± 0.3 | 199 to 200 | 1.79 ± 0.44 | 9.87 ± 0.66 | – |
| O=C(Nc1c(Br)cc(C(F)(F)F)cc1Br)c1ccc2ccccc2c1O [6l] | 6.81 ± 2.66 | 183 to 186 | 9.37 ± 0.47 | 20.4 ± 1.16 | – |
| O=C(Nc1cc(F)c(F)c(F)c1)c1ccc2ccccc2c1O [4l] | 1.42 ± 0.25 | 242 to 247 | 1.19 ± 0.31 | 10 ± 0.54 | – |
| Cc1ccc(C(F)(F)F)cc1NC(=O)c1ccc2ccccc2c1O [3i] | 5.08 ± 1.23 | 140 to 143 | 8.41 ± 1.07 | > 25 | – |
| O=C(Nc1ccc(Cl)cc1F)c1ccc2ccccc2c1O [4q] | 9.69 ± 3.13 | 163 to 165 | 9.89 ± 3.26 | > 25 | – |
| O=C(Nc1ccc(F)cc1F)c1ccc2ccccc2c1O [4d] | 11.4 ± 1.92 | 185 to 187 | 6.55 ± 0.83 | > 25 | – |
| O=C(Nc1cc(C(F)(F)F)ccc1F)c1ccc2ccccc2c1O [4u] | 7.45 ± 1.74 | 190 to 192 | 10.1 ± 2.61 | > 25 | – |
| O=C(Nc1ccc(C(F)(F)F)cc1Br)c1ccc2ccccc2c1O [6i] | 2.19 ± 0.67 | 168 to 170 | 3.58 ± 1.25 | 18.4 ± 1.23 | – |
| O=C(Nc1cc(F)cc(C(F)(F)F)c1)c1ccc2ccccc2c1O [4×] | > 25 | 165 to 167 | 9.01 ± 0.45 | 24.1 ± 2.02 | – |
| COc1ccc(NC(=O)c2ccc3ccccc3c2O)cc1C(F)(F)F [7k] | > 25 | 183 to 186 | > 25 | – | – |
| O=C(Nc1ccc(Cl)c(C(F)(F)F)c1)c1ccc2ccccc2c1O [7n] | 18.7 ± 2.78 | 173 to 175 | 9.66 ± 3.17 | > 25 | – |
| COc1ccc(C)c(NC(=O)c2ccc3ccccc3c2O)c1 [3h] | > 25 | 128 to 130 | 11.7 ± 3.81 | > 25 | – |
| COc1ccc(Cl)c(NC(=O)c2ccc3ccccc3c2O)c1 [5p] | 19.3 ± 2.09 | 159 to 161 | 24.1 ± 2.58 | > 25 | – |
| O=C(Nc1ccc(F)c(C(F)(F)F)c1)c1ccc2ccccc2c1O [7m] | 14.5 ± 4.53 | 164 to 166 | 12 ± 3.68 | > 25 | – |
| O=C(Nc1cc(Cl)ccc1F)c1ccc2ccccc2c1O [4s] | 10.7 ± 1.73 | 169 to 171 | 8.66 ± 1.61 | > 25 | – |

| SMILES | IC50 [1] [µM] | melting point [°C] | IC50 [2] [µM] | IC50 [3] [µM] | selectivity towards the p53 null cells (HCT116 p53^−/− vs wild type) [1] |
| --- | --- | --- | --- | --- | --- |
| O=C(Nc1ccc(F)cc1C(F)(F)F)c1ccc2ccccc2c1O [7g] | > 25 | 135 to 137 | > 25 | – | – |
| O=C(Nc1cc(F)ccc1F)c1ccc2ccccc2c1O [4e] | 15.1 ± 6.75 | 153 to 155 | 4.76 ± 0.76 | > 25 | – |
| O=C(Nc1ccc(F)cc1Cl)c1ccc2ccccc2c1O [5m] | 8.29 ± 2.92 | 162 to 166 | 7.57 ± 2.16 | > 25 | – |
| O=C(Nc1cc(F)ccc1Br)c1ccc2ccccc2c1O [6j] | 5.83 ± 1.06 | 187 to 190 | 7.78 ± 1.37 | > 25 | – |
| O=C(Nc1ccc(F)c(F)c1F)c1ccc2ccccc2c1O [4i] | 4.43 ± 0.66 | 173 to 175 | 4.28 ± 0.66 | > 25 | – |
| O=C(Nc1cccc(Cl)c1F)c1ccc2ccccc2c1O [4o] | 6.76 ± 2.37 | 172 to 174 | 8.78 ± 2.18 | > 25 | – |
| O=C(Nc1cccc(C(F)(F)F)c1F)c1ccc2ccccc2c1O [4p] | 5.45 ± 1.72 | 174 to 175 | 6.5 ± 1.16 | 24.4 ± 2.51 | – |
| O=C(Nc1ccc(F)c(F)c1)c1ccc2ccccc2c1O [4g] | 5.88 ± 0.5 | 153 to 156 | 3.04 ± 0.06 | – | – |
| COc1ccc([N+](=O)[O-])cc1NC(=O)c1ccc2ccccc2c1O [2h] | 7.42 ± 2.05 | 215 to 218 | 7.05 ± 1.75 | > 25 | – |
| O=C(Nc1c(F)c(F)cc(F)c1F)c1ccc2ccccc2c1O [4m] | > 25 | 160 to 163 | 12 ± 0.92 | > 25 | – |
| O=C(Nc1c(Cl)cc(C(F)(F)F)cc1Cl)c1ccc2ccccc2c1O [5v] | > 25 | 191 to 194 | > 25 | – | – |
| O=C(Nc1ccc(Br)c(C(F)(F)F)c1)c1ccc2ccccc2c1O [7o] | 13.9 ± 3.75 | 172 to 173 | > 25 | > 25 | – |
| O=C(Nc1ccc(Br)c(F)c1)c1ccc2ccccc2c1O [4v] | 12.4 ± 1.11 | 199 to 202 | 10.9 ± 2.69 | > 25 | not selective |
| O=C(Nc1c(F)cc(F)cc1F)c1ccc2ccccc2c1O [4k] | > 25 | 180 to 184 | > 25 | – | – |
| O=C(Nc1cc(Br)ccc1F)c1ccc2ccccc2c1O [4t] | 14 ± 2.2 | 174 to 177 | 11.9 ± 1.28 | > 25 | – |
| Cc1cc(C)c(NC(=O)c2ccc3ccccc3c2O)c(C)c1 [3g] | > 25 | 160 to 163 | > 25 | – | – |
| O=C(Nc1cc(F)c(C(F)(F)F)cc1F)c1ccc2ccccc2c1O [4z] | 2.82 ± 0.77 | 229 to 231 | 4.22 ± 0.87 | 18.4 ± 0.91 | – |
| COc1cc([N+](=O)[O-])ccc1NC(=O)c1ccc2ccccc2c1O [2g] | 3.73 ± 1.09 | 250 to 253 | 2.62 ± 0.85 | 7.53 ± 2.97 | – |
| O=C(Nc1c(F)c(F)c(F)c(F)c1F)c1ccc2ccccc2c1O [4n] | 17.5 ± 0.76 | 230 to 234 | 11.6 ± 0.74 | > 25 | – |
| Cc1ccc(NC(=O)c2ccc3ccccc3c2O)cc1C(F)(F)F [7l] | > 25 | 168 to 171 | > 25 | – | – |
| COc1ccc(OC)c(NC(=O)c2ccc3ccccc3c2O)c1 [2d, N-(2,5-dimethoxyphenyl)−1-hydroxynaphthalene-2-carboxamide] | > 25 | 116 to 119 | > 25 | – | – |
